Data as given in ChEMBL document CHEMBL5344441, “Discovery and Preclinical Pharmacology of NX-2127, an Orally Bioavailable Degrader of Bruton's Tyrosine Kinase with Immunomodulatory Activity for the Treatment of Patients with B Cell Malignancies” (J Med Chem, 2024).
In brackets after ≈: the same amount, converted by molar mass. Activity calls are given as the source filed them. The calls are words filed in the database; no cut-off is given here.

Columns and labels:
[1] = biological target: Protein cereblon/Zinc finger protein Aiolos (Homo sapiens, UniProt Q96SW2+Q9UKT9); assay: In vivo protac activity at CRBN/IKZF3 in CB17-SCID mouse xenografted with human TMD8 cells assessed as degradation of IKZF3 protein in tumor at 10 to 90 mg/kg,po administration for 25 days by flow cytomtery; type: functional, organism-based; settings: dose 10-90 mg/kg, time 25.0 day
[2] = biological target: Voltage-gated inwardly rectifying potassium channel KCNH2 (Homo sapiens, UniProt Q12809); assay: Inhibition of human ERG; type: toxicity
[3] = AUC in mouse at 10 mg/kg,po; type: ADME, organism-based; set-up: dose 10 mg/kg, route po; settings: in vivo
[4] = Oral bioavailability in dog at 10 mg/kg; type: ADME, organism-based, Canis lupus familiaris; settings: in vivo
[5] = Observed clearance in dog at 1 mg/kg,iv; type: ADME, organism-based, Canis lupus familiaris; settings: in vivo
Cytochrome P450 2C19 = Cytochrome P450 2C19 (Homo sapiens, UniProt P33261); assay: Inhibition of CYP2C19 (unknown origin); type: ADME
Cytochrome P450 2C19, sequence (P33261 whole entry): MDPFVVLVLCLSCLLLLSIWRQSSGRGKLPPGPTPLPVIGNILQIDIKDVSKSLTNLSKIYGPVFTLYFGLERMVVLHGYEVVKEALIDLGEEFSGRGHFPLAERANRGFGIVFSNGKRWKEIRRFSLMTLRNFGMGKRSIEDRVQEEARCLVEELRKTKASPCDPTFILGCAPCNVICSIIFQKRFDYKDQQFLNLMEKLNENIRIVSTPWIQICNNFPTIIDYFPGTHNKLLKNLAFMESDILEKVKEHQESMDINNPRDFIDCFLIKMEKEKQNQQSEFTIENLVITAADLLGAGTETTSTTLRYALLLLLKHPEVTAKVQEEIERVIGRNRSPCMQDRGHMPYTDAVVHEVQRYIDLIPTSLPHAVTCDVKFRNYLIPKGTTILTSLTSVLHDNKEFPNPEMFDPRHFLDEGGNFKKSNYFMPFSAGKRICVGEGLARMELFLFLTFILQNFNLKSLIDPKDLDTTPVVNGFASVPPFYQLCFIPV

[6] = AUClast in cynomolgus monkey at 10 mg/kg,po administration for 14 days; type: ADME, organism-based, Macaca fascicularis; set-up: time 14 day, dose 10 mg/kg, route po; settings: in vivo
[7] = Aqueous solubility of the compound in PBS at pH 7.4; type: physicochemical
[8] = biological target: T1, Protein cereblon/Tyrosine-protein kinase BTK (Homo sapiens, UniProt Q06187+Q96SW2); assay: PROTAC activity at CRBN/BTK in human PBMC cells asessed as degradation of BTK protein at 50 nM incubated for 4 hrs by proteomics assay based LC-MS/MS analysis; type: cell-based
T1 sequence (Q06187 2-659 limits assumed): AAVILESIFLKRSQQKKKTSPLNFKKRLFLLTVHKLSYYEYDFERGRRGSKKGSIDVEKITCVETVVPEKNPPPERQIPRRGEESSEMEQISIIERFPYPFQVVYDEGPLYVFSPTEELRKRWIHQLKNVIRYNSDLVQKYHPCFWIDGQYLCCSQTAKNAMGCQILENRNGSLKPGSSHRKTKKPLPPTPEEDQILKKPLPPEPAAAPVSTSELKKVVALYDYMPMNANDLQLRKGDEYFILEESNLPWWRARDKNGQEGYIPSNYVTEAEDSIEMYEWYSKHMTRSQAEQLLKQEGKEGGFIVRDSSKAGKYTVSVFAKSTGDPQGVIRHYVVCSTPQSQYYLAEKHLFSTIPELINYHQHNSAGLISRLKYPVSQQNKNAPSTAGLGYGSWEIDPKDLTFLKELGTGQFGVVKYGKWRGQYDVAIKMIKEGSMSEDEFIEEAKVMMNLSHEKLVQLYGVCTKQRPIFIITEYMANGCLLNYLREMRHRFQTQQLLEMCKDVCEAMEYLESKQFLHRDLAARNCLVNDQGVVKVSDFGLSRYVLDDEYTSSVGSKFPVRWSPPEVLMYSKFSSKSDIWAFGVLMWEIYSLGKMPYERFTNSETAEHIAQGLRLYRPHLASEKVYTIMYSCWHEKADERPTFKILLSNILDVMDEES
T1 sequence (Q96SW2 whole entry partner): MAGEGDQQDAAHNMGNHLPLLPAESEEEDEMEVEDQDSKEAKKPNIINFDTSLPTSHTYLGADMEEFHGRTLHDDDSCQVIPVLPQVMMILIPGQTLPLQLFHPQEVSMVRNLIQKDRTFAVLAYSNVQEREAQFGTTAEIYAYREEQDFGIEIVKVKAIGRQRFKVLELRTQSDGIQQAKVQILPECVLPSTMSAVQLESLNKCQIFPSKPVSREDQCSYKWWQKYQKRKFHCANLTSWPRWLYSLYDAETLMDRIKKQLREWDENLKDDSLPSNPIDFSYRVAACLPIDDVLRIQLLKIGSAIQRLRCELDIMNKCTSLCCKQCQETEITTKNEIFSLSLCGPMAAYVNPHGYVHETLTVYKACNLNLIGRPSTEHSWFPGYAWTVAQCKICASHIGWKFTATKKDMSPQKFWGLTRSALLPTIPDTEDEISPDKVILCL

TMD8 [9] = assay: Antitumor activity against human TMD8 cells expressing wild type BTK xenografted in CB17-SCID mouse assessed as tumor growth inhibition at 30 mg/kg,po administration for 25 days; type: functional; settings: TMD8, 600 h, time 25 day, read-out: TGI
[10] = biological target: T2, Protein cereblon/Zinc finger protein Aiolos (Macaca fascicularis) (UniProt A0A2K5UTB3+A0A2K5VJM3); assay: In vivo protac activity at CRBN/IKZF3 in cynomolgus monkey assessed as degradation of IKZF3 protein at 10 to 100 mg/kg,po administration by flow cytomtery; type: functional, organism-based; settings: dose 10-100 mg/kg
T2 sequence (A0A2K5UTB3 1-488): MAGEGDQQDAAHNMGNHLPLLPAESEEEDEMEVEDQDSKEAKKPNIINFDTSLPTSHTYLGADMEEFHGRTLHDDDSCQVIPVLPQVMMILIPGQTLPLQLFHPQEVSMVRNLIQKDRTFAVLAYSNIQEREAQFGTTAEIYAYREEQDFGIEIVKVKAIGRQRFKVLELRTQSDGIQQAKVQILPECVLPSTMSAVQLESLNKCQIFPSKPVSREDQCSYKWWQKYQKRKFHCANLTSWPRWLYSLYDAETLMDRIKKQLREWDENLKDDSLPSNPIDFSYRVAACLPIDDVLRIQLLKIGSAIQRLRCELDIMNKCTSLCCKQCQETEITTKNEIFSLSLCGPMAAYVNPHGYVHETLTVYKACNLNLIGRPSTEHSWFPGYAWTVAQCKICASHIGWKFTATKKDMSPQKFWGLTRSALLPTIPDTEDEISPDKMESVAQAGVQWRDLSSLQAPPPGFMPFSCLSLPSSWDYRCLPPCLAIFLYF
T2 sequence (A0A2K5VJM3 entry or part of it partner): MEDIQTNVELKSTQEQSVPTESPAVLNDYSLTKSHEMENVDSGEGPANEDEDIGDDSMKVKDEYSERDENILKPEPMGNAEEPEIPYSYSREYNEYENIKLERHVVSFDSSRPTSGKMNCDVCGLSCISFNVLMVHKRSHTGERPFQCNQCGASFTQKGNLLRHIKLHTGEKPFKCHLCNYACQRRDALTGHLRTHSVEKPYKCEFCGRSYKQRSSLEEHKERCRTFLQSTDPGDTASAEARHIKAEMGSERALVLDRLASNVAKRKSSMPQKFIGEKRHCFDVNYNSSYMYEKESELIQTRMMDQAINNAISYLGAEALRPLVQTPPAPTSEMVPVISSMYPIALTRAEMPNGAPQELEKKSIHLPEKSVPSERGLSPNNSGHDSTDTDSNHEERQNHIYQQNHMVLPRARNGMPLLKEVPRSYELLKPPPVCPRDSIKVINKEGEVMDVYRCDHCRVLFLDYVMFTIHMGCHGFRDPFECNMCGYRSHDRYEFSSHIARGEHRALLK

Cytochrome P450 3A4 = Cytochrome P450 3A4 (Homo sapiens, UniProt P08684); assay: Time dependent inhibition of CYP3A4 (unknown origin); type: ADME
[11] = Plasma protein binding in dog; type: ADME, cell-free, Canis lupus familiaris; settings: read-out: PPB (converted)
[12] = biological target: T2, Protein cereblon/Zinc finger protein Aiolos (Macaca fascicularis); assay: In vivo protac activity at CRBN/IKZF3 in cynomolgus monkey assessed as degradation of IKZF3 protein at po administration measured after 24 hrs by flow cytomtery; type: functional, organism-based
[13] = biological target: Tyrosine-protein kinase BTK (Homo sapiens, UniProt Q06187); assay: Binding affinity to BTK (unknown origin) assessed as dissociation constant by surface plasmon resonance assay
TMD8 [14] = assay: Antitumor activity against human TMD8 cells expressing BTK C481S mutant xenografted in CB17-SCID mouse assessed as tumor growth inhibition at 90 mg/kg,po administration for 25 days; type: functional; settings: TMD8, 600 h, time 25 day, read-out: TGI
[15] = Cmax in mouse at 10 mg/kg,po; type: ADME, organism-based; set-up: dose 10 mg/kg, route po; settings: in vivo
[16] = biological target: T3, Protein cereblon-BTK (Macaca fascicularis) (UniProt A0A2K5UTB3+A0A7N9IGT8); assay: In vivo protac activity at CRBN/BTK in cynomolgus monkey assessed as degradation of BTK protein at po administration measured after 24 hrs by flow cytomtery; type: functional, organism-based
T3 sequence (A0A2K5UTB3 1-488): as the sequence (A0A2K5UTB3 1-488) above
T3 sequence (A0A7N9IGT8 entry or part of it partner): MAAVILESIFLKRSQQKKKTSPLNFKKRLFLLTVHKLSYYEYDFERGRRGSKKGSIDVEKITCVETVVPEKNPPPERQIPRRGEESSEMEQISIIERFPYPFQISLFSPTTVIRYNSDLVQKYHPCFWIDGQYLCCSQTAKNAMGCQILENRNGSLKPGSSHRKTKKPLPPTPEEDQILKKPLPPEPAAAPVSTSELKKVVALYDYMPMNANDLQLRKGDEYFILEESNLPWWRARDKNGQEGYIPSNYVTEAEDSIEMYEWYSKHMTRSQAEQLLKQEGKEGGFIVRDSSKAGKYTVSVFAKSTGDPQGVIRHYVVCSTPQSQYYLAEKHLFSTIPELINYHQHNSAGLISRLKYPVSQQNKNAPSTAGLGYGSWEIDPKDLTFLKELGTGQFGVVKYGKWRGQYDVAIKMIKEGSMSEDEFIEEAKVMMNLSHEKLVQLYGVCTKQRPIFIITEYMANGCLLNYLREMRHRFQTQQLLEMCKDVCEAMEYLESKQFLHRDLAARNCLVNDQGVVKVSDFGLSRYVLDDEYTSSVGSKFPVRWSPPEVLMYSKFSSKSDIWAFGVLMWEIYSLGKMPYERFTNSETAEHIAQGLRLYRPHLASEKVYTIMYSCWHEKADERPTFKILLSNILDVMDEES

TMD8 [17] = assay: Antitumor activity against human TMD8 cells expressing BTK C481S mutant xenografted in CB17-SCID mouse assessed as tumor growth inhibition at 30 mg/kg,po administration for 25 days; type: functional; settings: TMD8, 600 h, time 25 day, read-out: TGI
[18] = test system: Protein cereblon/Tyrosine-protein kinase BTK (Homo sapiens); assay: In vivo protac activity at CRBN/BTK in CB17-SCID mouse xenografted with human TMD8 cells assessed as degradation of BTK protein in tumor at 10 to 90 mg/kg,po administration for 25 days by flow cytomtery; settings: dose 10-90 mg/kg, time 25.0 day
[19] = AUC in dog at 10 mg/kg,po; type: ADME, organism-based, Canis lupus familiaris; set-up: dose 10 mg/kg, route po; settings: in vivo
Cereblon/Ikaros = Cereblon/Ikaros (Homo sapiens, UniProt Q96SW2+Q13422); assay: PROTAC activity at CRBN/IKZF1 in human T cell assessed as degradation of IKZF1 protein incubated for 24 hrs by flow cytometry; type: cell-based
[20] = biological target: Protein cereblon/Tyrosine-protein kinase BTK (Mus musculus) (UniProt P35991+Q8C7D2); assay: In vivo protac activity at CRBN/BTK in BALB/c mouse assessed as residual BTK protein in blood at 0.3 mg/kg,po administration measured after 24 hrs by flow cytomtery relative to control
Protein cereblon/Tyrosine-protein kinase BTK (Mus musculus), sequence (P35991 whole entry, looked up): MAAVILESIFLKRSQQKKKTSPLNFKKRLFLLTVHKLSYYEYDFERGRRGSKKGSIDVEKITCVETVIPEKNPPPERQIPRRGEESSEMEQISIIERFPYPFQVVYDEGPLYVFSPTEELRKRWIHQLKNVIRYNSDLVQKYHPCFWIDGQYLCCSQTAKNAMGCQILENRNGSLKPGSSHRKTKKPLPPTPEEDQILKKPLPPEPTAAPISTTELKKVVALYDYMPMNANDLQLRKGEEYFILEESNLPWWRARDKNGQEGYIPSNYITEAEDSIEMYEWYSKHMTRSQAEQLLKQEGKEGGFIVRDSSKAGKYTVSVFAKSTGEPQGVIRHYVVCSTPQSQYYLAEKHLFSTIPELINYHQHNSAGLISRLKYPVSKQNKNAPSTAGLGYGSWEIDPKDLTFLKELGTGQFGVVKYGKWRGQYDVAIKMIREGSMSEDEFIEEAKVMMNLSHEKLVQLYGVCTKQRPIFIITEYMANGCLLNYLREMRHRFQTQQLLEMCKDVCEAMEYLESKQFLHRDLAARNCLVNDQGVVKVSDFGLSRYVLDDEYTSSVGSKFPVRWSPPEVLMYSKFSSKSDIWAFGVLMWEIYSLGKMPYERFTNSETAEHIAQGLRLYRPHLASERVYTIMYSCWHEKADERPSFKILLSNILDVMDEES
Protein cereblon/Tyrosine-protein kinase BTK (Mus musculus), sequence (Q8C7D2 whole entry, looked up): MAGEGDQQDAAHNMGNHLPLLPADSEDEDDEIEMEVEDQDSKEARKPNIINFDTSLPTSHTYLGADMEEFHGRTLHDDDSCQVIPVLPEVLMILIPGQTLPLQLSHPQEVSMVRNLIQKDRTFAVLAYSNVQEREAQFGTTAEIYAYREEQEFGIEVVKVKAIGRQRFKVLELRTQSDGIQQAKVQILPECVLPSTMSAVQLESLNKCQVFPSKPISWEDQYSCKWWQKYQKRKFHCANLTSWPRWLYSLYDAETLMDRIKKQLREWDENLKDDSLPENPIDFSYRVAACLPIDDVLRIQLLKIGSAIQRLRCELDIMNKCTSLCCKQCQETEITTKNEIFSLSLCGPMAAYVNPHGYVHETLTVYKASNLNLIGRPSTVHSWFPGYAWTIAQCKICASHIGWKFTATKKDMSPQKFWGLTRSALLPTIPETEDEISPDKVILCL

Cytochrome P450 2D6 = Cytochrome P450 2D6 (Homo sapiens, UniProt P10635); assay: Inhibition of CYP2D6 (unknown origin); type: ADME
Cytochrome P450 2D6, sequence (P10635 whole entry): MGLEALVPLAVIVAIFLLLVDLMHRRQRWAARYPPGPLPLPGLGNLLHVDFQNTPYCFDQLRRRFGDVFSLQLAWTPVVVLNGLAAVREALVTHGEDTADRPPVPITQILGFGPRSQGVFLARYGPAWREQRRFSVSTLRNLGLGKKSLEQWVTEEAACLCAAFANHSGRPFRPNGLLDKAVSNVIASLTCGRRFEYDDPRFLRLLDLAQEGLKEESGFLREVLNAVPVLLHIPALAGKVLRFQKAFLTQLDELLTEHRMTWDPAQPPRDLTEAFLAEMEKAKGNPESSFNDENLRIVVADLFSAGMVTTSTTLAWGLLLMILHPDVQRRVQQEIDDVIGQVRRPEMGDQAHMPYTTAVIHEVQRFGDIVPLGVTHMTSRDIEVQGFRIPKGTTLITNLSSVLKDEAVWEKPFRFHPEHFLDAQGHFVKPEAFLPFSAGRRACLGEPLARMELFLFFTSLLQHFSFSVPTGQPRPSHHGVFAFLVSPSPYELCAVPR

[21] = Plasma protein binding in cynomolgus monkey; type: ADME, cell-free, Macaca fascicularis; settings: read-out: PPB (converted)
[22] = Cmax in cynomolgus monkey at 10 mg/kg,po administration for 14 days; type: ADME, organism-based, Macaca fascicularis; set-up: dose 10 mg/kg, time 14 day, route po; settings: in vivo
T-cell = assay: Activation of T-cellular function in anti-CD3/anti-CD28 activated human T cell assessed as increase in IL-2 secretion at 0.001 to 100 nM incubated for 24 hrs followed by anti-CD3/anti-CD28 stimulation by ELISA; type: functional, cell-based; settings: dose 0.001-100 nM
Cytochrome P450 1A2 = Cytochrome P450 1A2 (Homo sapiens, UniProt P05177); assay: Inhibition of CYP1A2 (unknown origin); type: ADME
[23] = biological target: T2, Protein cereblon/Zinc finger protein Aiolos (Macaca fascicularis); assay: In vivo protac activity at CRBN/IKZF3 in cynomolgus monkey assessed as degradation of IKZF3 protein at 10 mg/kg,po administration for 14 days by flow cytomtery relative to control; type: functional, organism-based; settings: time 14.0 day
[24] = Lipophilicity, logD of compound at pH 7.4; type: physicochemical; settings: buffer
[25] = AUC in rat at 10 mg/kg,po; type: ADME, organism-based; set-up: dose 10 mg/kg, route po; settings: in vivo
TMD8 [26] = assay: Antitumor activity against human TMD8 cells expressing BTK C481S mutant xenografted in CB17-SCID mouse assessed as tumor growth inhibition at 10 mg/kg,po administration for 25 days; type: functional; settings: TMD8, 600 h, time 25 day, read-out: TGI
[27] = biological target: T1, Protein cereblon/Tyrosine-protein kinase BTK; assay: PROTAC activity at CRBN/BTK in human TMD8 cells assessed as maximal degradation of BTK protein incubated for 4 hrs by HTRF assay relative to control; type: cell-based
[28] = Drug uptake in BALB/c mouse plasma at po administration; type: ADME, organism-based; settings: in vivo
[29] = biological target: T3, Protein cereblon-BTK (Macaca fascicularis); assay: In vivo protac activity at CRBN/BTK in cynomolgus monkey assessed as remaining BTK protein in B cells at 100 mg/kg,po administration for 1 day by flow cytomtery relative to control; type: functional, organism-based
[30] = biological target: Protein cereblon/Tyrosine-protein kinase BTK (Homo sapiens, UniProt Q06187+Q96SW2, C481S); assay: PROTAC activity at CRBN/BTK C481S mutant in human TMD8 cells assessed as degradation of BTK protein incubated for 4 hrs by HTRF assay; type: cell-based
Protein cereblon/Tyrosine-protein kinase BTK (Homo sapiens, UniProt Q06187+Q96SW2, C481S), sequence (Q06187 2-659 C481S limits assumed, stated change not applied): as the sequence (Q06187 2-659 limits assumed) above, with C480S counted along it
Protein cereblon/Tyrosine-protein kinase BTK (Homo sapiens, UniProt Q06187+Q96SW2, C481S), sequence (Q96SW2 whole entry, stated change not applied): as the sequence (Q96SW2 whole entry partner) above

TMD8 [31] = assay: Antitumor activity against human TMD8 cells expressing wild type BTK xenografted in CB17-SCID mouse assessed as tumor growth inhibition at 10 mg/kg,po administration for 25 days; type: functional; settings: TMD8, 600 h, time 25 day, read-out: TGI
[32] = Apparent permeability across apical to basolateral side in human Caco-2 cells; type: ADME, cell-based
[33] = Oral bioavailability in rat at 10 mg/kg; type: ADME, organism-based; settings: in vivo

Structure (SMILES): NC(=O)c1ncc(N2CCCCC2)nc1Nc1ccc(C2CCN(C[C@H]3CCN(c4ccc5c(c4)C(=O)N(C4CCC(=O)NC4=O)C5=O)C3)CC2)cc1 (some centres undefined) [ZELEBRUDOMIDE]
- Activity [1]: Active
- IC50 [2]: > 30000 nM
- AUC [3]: 16 µM·h
- bioavailability [4]: 1%
- clearance [5]: 18.4 mL/min/kg
- IC50 (Cytochrome P450 2C19): > 30000 nM
- AUC(0-t) at 336 h [6]: 366 ng·h/mL
- solubility [7]: 0.2 µM (≈ 0.144 µg/mL)
- Activity [8]: Active
- inhibition in vivo at 30 mg/kg (TMD8 [9]): 73%
- Activity [10]: inactive
- TDI (Cytochrome P450 3A4): Not Active
- fraction unbound [11]: 0.025
- Activity [12]: Dose-Dependent Effect
- Kd [13]: 45 nM
- inhibition in vivo at 90 mg/kg (TMD8 [14]): 59%
- Cmax [15]: 1300 nM
- Activity [16]: Dose-Dependent Effect
- inhibition in vivo at 30 mg/kg (TMD8 [17]): 43%
- Activity [18]: Active
- AUC [19]: 0.13 µM·h
- DC50 (Cereblon/Ikaros): 57 nM
- residual activity [20]: 81%
- IC50 (Cytochrome P450 2D6): > 30000 nM
- fraction unbound [21]: 0.046
- Cmax [22]: 25.4 ng/mL
- Activity (T-cell): Active
- IC50 (Cytochrome P450 1A2): > 30000 nM
- Activity [23]: 76%
- logD [24]: 3.1
- AUC [25]: 0.89 µM·h
- inhibition in vivo at 10 mg/kg (TMD8 [26]): 17%
- Emax [27]: 94%
- Drug uptake [28]: Dose-Dependent Effect
- Activity [29]: 8%
- DC50 [30]: 31 nM
- inhibition in vivo at 10 mg/kg (TMD8 [31]): 35%
- Papp A→B [32]: < 0.02 ×10⁻⁶ cm/s
- bioavailability [33]: 7.1%
